≈ marks a conversion by molar mass, not a printed value. Read-outs that look alike come from different tables or passages of the source.
Tests used:
Assay type in all cases: cell-based
[1] = test system: test strains; assay: antimicrobial activity in vitro, comparison in words; conditions: data are not shown
Procedure: (§1) Antimicrobial activities of the compounds of the present invention were determined by measuring minimum inhibitory concentration (MIC). Minimum inhibitory concentration was determined by the agar plate dilution method in the following manner.
(§2) Test strains were subjected to seed culture using Sensitivity test broth (STB, Nissui Pharmaceutical) except that the strains belonging to the genus Streptococcus, Branhamella and Haemophilus were cultured on blood agar plate. A 5 μl portion of cell suspension of the test strains having about 10^6 CFU/ml was inoculated into Sensitivity disk agar (SDA, Nissui Pharmaceutical) supplemented with 5% horse blood and incubated at 37° C. for 20 hours. Then, MIC was measured. For comparison, MDM and leucomycin A7 (LM-A7) was also tested.

[2] = test system: S. aureus MS15009/pMS99; assay: MIC, agar plate dilution method; conditions: Staphylococcus aureus, MS15009/PMS99, 20 h, read-out: Antimicrobial activity (MIC)
Procedure: as §1, §2

[3] = test system: S. epidermidis ATCC14990; assay: MIC, agar plate dilution method; conditions: Staphylococcus epidermidis, 37° C., 20 hours, read-out: Antimicrobial activity (MIC)
Procedure: as §1, §2

[4] = test system: S. aureus MS15027; assay: MIC, agar plate dilution method; conditions: Staphylococcus aureus, 37° C., 20 hours, read-out: Antimicrobial activity (MIC)
Procedure: as §1, §2

[5] = test system: B. catarrhalis W-0500; assay: MIC, agar plate dilution method; conditions: Moraxella catarrhalis, W0500, 37° C., 20 hours, read-out: Antimicrobial activity (MIC)
Procedure: as §1, §2

[6] = test system: S. aureus MS15026; assay: MIC, agar plate dilution method; conditions: Staphylococcus aureus, 37° C., 20 hours, read-out: Antimicrobial activity (MIC)
Procedure: as §1, §2

[7] = test system: K. pneumoniae PC1602; assay: MIC, agar plate dilution method; conditions: Klebsiella pneumoniae, 37° C., 20 hours, read-out: Antimicrobial activity (MIC)
Procedure: as §1, §2

[8] = test system: S. aureus 209P JC-1; assay: MIC, agar plate dilution method; conditions: Staphylococcus aureus, read-out: Antimicrobial activity (MIC)
Procedure: as §1, §2

[9] = test system: S. aureus M133; assay: MIC, agar plate dilution method; conditions: Staphylococcus aureus, 37° C., 20 hours, read-out: Antimicrobial activity (MIC)
Procedure: as §1, §2

[10] = test system: H. influenzae 9334; assay: MIC, agar plate dilution method; conditions: Haemophilus influenzae; H. influenzae 9334; 37° C., 20 hours; read-out: Antimicrobial activity (MIC)
Procedure: as §1, §2

[11] = test system: E. coli NIHJ JC-2; assay: MIC, agar plate dilution method; conditions: Escherichia coli, NIHJJC2; E. coli NIHJ JC-2; 37° C., 20 hours; read-out: Antimicrobial activity (MIC)
Procedure: as §1, §2

[12] = test system: H. influenzae Type b; assay: MIC, agar plate dilution method; conditions: Haemophilus influenzae, read-out: Antimicrobial activity (MIC)
Procedure: as §1, §2

[13] = test system: E. faecalis W-73; assay: MIC, agar plate dilution method; conditions: Enterococcus faecalis, W73; E. faecalis W-73; 37° C., 20 hours; read-out: Antimicrobial activity (MIC)
Procedure: as §1, §2

[14] = test system: S. aureus M126; assay: MIC, agar plate dilution method; conditions: Staphylococcus aureus, read-out: Antimicrobial activity (MIC)
Procedure: as §1, §2

[15] = test system: S. aureus MS15009/pMS98; assay: MIC, agar plate dilution method; conditions: Staphylococcus aureus, MS15009/PMS98, 20 h, read-out: Antimicrobial activity (MIC)
Procedure: as §1, §2

[16] = test system: S. Pneumoniae Type 1; assay: MIC, agar plate dilution method; conditions: Streptococcus pneumoniae; S. Pneumoniae Type 1; 37° C., 20 hours; read-out: Antimicrobial activity (MIC)
Procedure: as §1, §2

[17] = test system: B. catarrhalis W-0506; assay: MIC, agar plate dilution method; conditions: Moraxella catarrhalis, W0506, 37° C., 20 hours, read-out: Antimicrobial activity (MIC)
Procedure: as §1, §2

[18] = test system: S. Pyogenes Cook; assay: MIC, agar plate dilution method; conditions: Streptococcus pyogenes, 37° C., 20 hours, read-out: Antimicrobial activity (MIC)
Procedure: as §1, §2

[19] = test system: S. pneumoniae IP692; assay: MIC, agar plate dilution method; conditions: Streptococcus pneumoniae; S. pneumoniae IP692; 37° C., 20 hours; read-out: Antimicrobial activity (MIC)
Procedure: as §1, §2

[20] = test system: M. luteus ATCC9341; assay: MIC, agar plate dilution method; conditions: Micrococcus luteus; M. luteus ATCC9341; 37° C., 20 hours; read-out: Antimicrobial activity (MIC)
Procedure: as §1, §2

[21] = test system: Gram-positive bacteria; assay: antimicrobial activity in vitro (summary in words); conditions: from Tables 2 and 3
Procedure: as §1, §2

SMILES: CO[C@@H]1[C@@H](O[C@@H]2O[C@H](C)[C@@H](O[C@H]3C[C@@](C)(OC)[C@@H](OCCC(C)C)[C@H](C)O3)[C@H](N(C)C)[C@H]2O)[C@@H](CC=O)C[C@@H](C)[C@@H](OC(C)=O)/C=C/C=C/C[C@@H](C)OC(=O)C[C@H]1O [(13)]
- antimicrobial activity compared with compound (12) [1]: comparable in the antimicrobial activity to the compound (12)

SMILES: CCC(=O)O[C@H]1[C@H](C)O[C@@H](O[C@H]2[C@H](N(C)C)[C@@H](O)[C@H](O[C@H]3[C@@H](CC=O)C[C@@H](C)[C@@H](O)/C=C/C=C/C[C@@H](C)OC(=O)C[C@@H](O)[C@@H]3OC)O[C@@H]2C)C[C@@]1(C)O [LM-A7, leucomycin A7, reference compound]
- MIC [2]: > 100 µg/mL
- MIC [3]: 0.39 µg/mL (≈ 0.515 µM)
- MIC [4]: 0.39 µg/mL (≈ 0.515 µM)
- MIC [5]: 0.78 µg/mL (≈ 1.03 µM)
- MIC [6]: > 100 µg/mL
- MIC [7]: > 100 µg/mL
- MIC ([8]; 209P, 20 h): 0.2 µg/mL (≈ 0.264 µM)
- MIC [9]: 0.39 µg/mL (≈ 0.515 µM)
- MIC [10]: 0.78 µg/mL (≈ 1.03 µM)
- MIC [11]: > 100 µg/mL
- MIC ([12]; H. influenzae Type b, 37° C., 20 hours): 6.25 µg/mL (≈ 8.25 µM)
- MIC [13]: 0.78 µg/mL (≈ 1.03 µM)
- MIC ([14]; M126, 20 h): > 100 µg/mL
- MIC [15]: 0.39 µg/mL (≈ 0.515 µM)
- MIC [16]: 0.2 µg/mL (≈ 0.264 µM)
- MIC [17]: 1.56 µg/mL (≈ 2.06 µM)
- MIC [18]: 0.1 µg/mL (≈ 0.132 µM)
- MIC [19]: 0.2 µg/mL (≈ 0.264 µM)
- MIC [20]: 0.05 µg/mL (≈ 0.066 µM)

SMILES: CCCO[C@H]1[C@H](C)O[C@@H](O[C@H]2[C@H](N(C)C)[C@@H](O)[C@H](O[C@H]3[C@@H](CC=O)C[C@@H](C)[C@@H](O)/C=C/C=C/C[C@@H](C)OC(=O)C[C@@H](O)[C@@H]3OC)O[C@@H]2C)C[C@@]1(C)OC [(9)]
- MIC [2]: > 100 µg/mL
- MIC [3]: 0.39 µg/mL (≈ 0.515 µM)
- MIC [4]: 0.39 µg/mL (≈ 0.515 µM)
- MIC [5]: 1.56 µg/mL (≈ 2.06 µM)
- MIC [6]: > 100 µg/mL
- MIC [7]: > 100 µg/mL
- MIC ([8]; S. aureus 209P JC-1, 37° C., 20 hours): 0.2 µg/mL (≈ 0.264 µM)
- MIC [9]: 0.39 µg/mL (≈ 0.515 µM)
- MIC [10]: 6.25 µg/mL (≈ 8.25 µM)
- MIC [11]: > 100 µg/mL
- MIC ([12]; 20 h): 12.5 µg/mL (≈ 16.5 µM)
- MIC [13]: 0.78 µg/mL (≈ 1.03 µM)
- MIC ([14]; S. aureus M126, 37° C., 20 hours): > 100 µg/mL
- MIC [15]: 0.39 µg/mL (≈ 0.515 µM)
- MIC [16]: 0.2 µg/mL (≈ 0.264 µM)
- MIC [17]: 3.13 µg/mL (≈ 4.13 µM)
- MIC [18]: 0.1 µg/mL (≈ 0.132 µM)
- MIC [19]: 0.2 µg/mL (≈ 0.264 µM)
- MIC [20]: 0.05 µg/mL (≈ 0.066 µM)
- antimicrobial activity on Gram-positive bacteria [21]: strong antimicrobial activity
